Test results published in patent US7608589B2, “Peptidyl diacylglycerides” (priority 2005, dated 2009).

Tested on: immunoglobulin titers (IgG and IgM) specific for M. tuberculosis
Set-up: species or system rabbits
Conditions: rabbit, in vivo, sc

FNNFTVSFWLRVPKVSASHLE [FNN-21, reference compound]
immunoglobulin titer, average absorbance, Day 1: 0.14 AU 405 nm | immunoglobulin titer, average absorbance, Day 3: 0.15 AU 405 nm | immunoglobulin titer, average absorbance, Day 5: 0.13 AU 405 nm | immunoglobulin titer, average absorbance, Day 7: 0.16 AU 405 nm | immunoglobulin titer, average absorbance, Day 10: 0.25 AU 405 nm | immunoglobulin titer, average absorbance, Day 14: 0.35 AU 405 nm
